Literature values in US20070154567A1, “Use of mercury to treat cancer” (priority 2006, published 2007).

Tested on: mammary and sarcoma tumor growth in seeded wounds
Details: 0.2% w/v solution administered to the wound site, mice; cited from earlier work

[Cl][Hg][Cl] [mercuric chloride]
mammary and sarcoma tumor growth in seeded wounds: reduce
